Literature values as cited in patent US6521608B1, “Vitamin D and its analogs in the treatment of tumors and other hyperproliferative disorders” (Oregon Health & Science University, priority 1998, dated 2003).
Where “and” joins values, the source holds several entries; their conditions need not be identical. Identical values can stand only once.

Tests used:
VDR (rat intestine) = biological target: T1, VDR (rat intestine) (Rattus norvegicus, UniProt P13053); conditions: cited from earlier work
T1 construct: SPC indicates the species of origin of the nVDR where c=chick intestine, r=rat intestine; from tissue; host or cells: rat intestine
T1 sequence (P13053 1-423): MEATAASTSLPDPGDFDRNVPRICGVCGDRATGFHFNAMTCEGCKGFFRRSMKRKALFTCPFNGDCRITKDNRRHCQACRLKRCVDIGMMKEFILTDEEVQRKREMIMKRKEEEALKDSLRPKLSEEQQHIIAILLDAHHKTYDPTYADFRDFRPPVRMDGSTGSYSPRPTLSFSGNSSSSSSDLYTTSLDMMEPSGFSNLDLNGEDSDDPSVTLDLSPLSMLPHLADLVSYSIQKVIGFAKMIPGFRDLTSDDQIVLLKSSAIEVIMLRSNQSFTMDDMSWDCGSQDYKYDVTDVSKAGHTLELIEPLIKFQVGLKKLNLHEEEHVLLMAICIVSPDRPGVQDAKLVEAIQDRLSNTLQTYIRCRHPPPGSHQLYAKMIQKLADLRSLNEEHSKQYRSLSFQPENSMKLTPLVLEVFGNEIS

VDR (chick intestine) = biological target: T2, VDR (chick intestine) (Gallus gallus, UniProt O42392); conditions: cited from earlier work
T2 construct: SPC indicates the species of origin of the nVDR where c=chick intestine, r=rat intestine; from tissue; host or cells: chick intestine
T2 sequence (O42392 1-451): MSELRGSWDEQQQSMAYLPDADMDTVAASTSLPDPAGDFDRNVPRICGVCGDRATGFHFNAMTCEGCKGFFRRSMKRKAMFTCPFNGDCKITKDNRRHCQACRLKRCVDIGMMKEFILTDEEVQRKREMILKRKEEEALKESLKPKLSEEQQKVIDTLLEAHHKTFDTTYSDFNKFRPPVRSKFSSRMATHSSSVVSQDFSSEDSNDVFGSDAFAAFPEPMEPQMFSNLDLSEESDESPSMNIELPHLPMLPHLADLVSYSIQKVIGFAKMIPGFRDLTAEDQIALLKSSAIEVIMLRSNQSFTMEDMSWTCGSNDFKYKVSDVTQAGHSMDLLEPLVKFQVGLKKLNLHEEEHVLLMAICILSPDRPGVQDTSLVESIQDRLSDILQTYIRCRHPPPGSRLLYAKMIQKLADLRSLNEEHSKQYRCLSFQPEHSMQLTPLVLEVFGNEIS

[1] = relative to calcitriol = 1; cited from earlier work
[2] = biological target: T3, VDR (MCF-7 human breast cancer cells) (Homo sapiens, UniProt P11473); conditions: MCF-7 cells; cited from earlier work
T3 construct: m=MCF-7 human breast cancer cells, z=rat osteosarcoma ROS 17/2.8 cells; endogenous in cells; host or cells: MCF-7 human breast cancer cells
T3 sequence (P11473 1-427): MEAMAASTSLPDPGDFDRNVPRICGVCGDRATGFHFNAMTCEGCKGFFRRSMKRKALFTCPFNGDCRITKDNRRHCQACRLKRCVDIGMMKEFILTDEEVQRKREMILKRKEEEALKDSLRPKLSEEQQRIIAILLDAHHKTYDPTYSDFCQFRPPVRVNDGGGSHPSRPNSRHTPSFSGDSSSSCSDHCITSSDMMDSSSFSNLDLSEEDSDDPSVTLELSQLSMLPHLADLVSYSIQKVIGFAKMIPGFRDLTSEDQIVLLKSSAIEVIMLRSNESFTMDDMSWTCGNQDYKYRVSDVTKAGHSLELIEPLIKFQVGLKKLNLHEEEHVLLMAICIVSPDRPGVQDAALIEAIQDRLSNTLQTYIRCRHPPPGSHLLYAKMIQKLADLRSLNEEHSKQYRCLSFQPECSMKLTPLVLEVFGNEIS

[3] = biological target: T4, VDR (rat osteosarcoma ROS 17/2.8 cells) (Rattus norvegicus, UniProt P13053); conditions: cited from earlier work
T4 construct: m=MCF-7 human breast cancer cells, z=rat osteosarcoma ROS 17/2.8 cells; endogenous in cells; host or cells: ROS 17/2.8 rat osteosarcoma cells
T4 sequence (P13053 1-423): T1 sequence (P13053 1-423)

VDR (U-937 cells) = biological target: T5, VDR (U-937 cells) (Homo sapiens, UniProt P11473); conditions: cited from earlier work
T5 construct: obtained in human transformed cell lines where h=HL-60 cells, u=U-937; endogenous in cells; host or cells: U-937
T5 sequence (P11473 1-427): T3 sequence (P11473 1-427)

[4] = system: locally advanced or cutaneous metastatic breast cancer; conditions: topical, cited from earlier work

| Molecule | Relative Competitive index for VDR (Calcitriol = 100) (VDR (rat intestine)) | Relative Competitive index for VDR (Calcitriol = 100) (VDR (chick intestine)) | calcemic index (CI) [1] | also measured |
| --- | --- | --- | --- | --- |
| 25-(OH)2-16-ene-23-yne-D3 | 0.07 (rat intestine) | 0.4 (chick) and <0.4 (chick) | – | – |
| C=C1/C(=C\C=C2/CCC[C@]3(C)C([C@H](C)CC#CC(C)(C)O)=CC[C@@H]23)C[C@@H](O)C[C@@H]1O [1,25-(OH)2-16-Ene-23-yne-D3, 1,25-(OH)2-16-ene-23-yne-D3] | 50 (rat intestine) | 68 (chick) and 70 (chick) and 90 (chick) and 80 (chick) | – | – |
| C=C1/C(=C\C=C2/CCC[C@]3(C)C([C@H](C)CCCC(C)(C)O)=CC[C@@H]23)C[C@@H](O)C[C@@H]1O [1,25-(OH)2-16-Ene-D3, 1,25-(OH)2-16-ene-D3] | 240 (rat intestine) and 250 (rat intestine) | 165 (chick) | – | – |
| C=C1/C(=C\C=C2/CCC[C@]3(C)[C@@H]([C@H](C)CCCC(C)C)CC[C@@H]23)C[C@@H](O)C[C@@H]1O [1alpha-(OH)-D3, 1α-hydroxyvitamin D3] | – | 0.17 (chick) | – | – |
| C=C1C(=CC=C2CC(CF)CC3(C)C2CCC3C(C)CCCC(C)(C)O)CC(O)CC1O (stereo not drawn) [11α-fluoromethyl-1α,25-(OH)2-D3] | – | – | about 0.1 | – |
| C=C1/C(=C\C=C2/CCC[C@]3(C)[C@@H]([C@H](C)OCCC(C)(C)O)CC[C@@H]23)C[C@@H](O)C[C@@H]1O [22-Oxacalcitriol, 22-oxa-1α,25-(OH)2-D3] | – | – | CI < 0.001 | Relative Competitive index for VDR (Calcitriol = 100) [2]: 100 (MCF-7 cells); Relative Competitive index for VDR (Calcitriol = 100) [3]: 100 (rat osteosarcoma) |
| C=C1/C(=C\C=C2/CCC[C@]3(C)[C@@H]([C@H](C)/C=C/C=C/C(O)(CC)CC)CC[C@@H]23)C[C@@H](O)C[C@@H]1O [EB 1089, 24a,26a,27a-trihomo-22,24-diene-1α, 25-(OH)2-D3] | – | 17 (chick) | – | – |
| C=C1/C(=C\C=C2/CCC[C@]3(C)[C@@H]([C@@H](C)OCCCC(O)(CC)CC)CC[C@@H]23)C[C@@H](O)C[C@@H]1O [KH 1060, 20-epi-22-oxa-24a,26a,27a-trihomo-1α,25-(OH)2-D3] | – | – | CI = 1.3 | – |
| C=C1/C(=C\C=C2/CCC[C@]3(C)[C@@H]([C@H](C)/C=C/[C@@H](O)C4CC4)CC[C@@H]23)C[C@@H](O)C[C@@H]1O [MC 903, 1[…]24S-(OH)2-22-Ene-26,27-dehydro-D3] | – | 111 (chick) and 76 (chick) and 100 (chick) | CI < 0.01 | Relative Competitive index for VDR (Calcitriol = 100) (VDR (U-937 cells)): 240 (U-937 cells); patients with a 50% reduction in the bidirectional diameter of the treated lesions ([4]; patients who completed 6 weeks of treatment): Three of the 14; hypercalcemia [4]: hypercalcemia was a complication of the treatment |
| C=C1/C(=C\C=C2/CCC[C@]3(C)[C@@H]([C@H](C)CCCC(C)(C)O)CC[C@@H]23)C[C@@H](O)C[C@@H]1O [MC 1288, 1,25(OH2-20-epi-D3] | – | 147 (chick) and 120 (chick) | – | – |
